# How the values were obtained:
# Aurora B [1] = molecular target: T1, Aurora B (Homo sapiens, UniProt Q96GD4); assay: Aurora B kinase activity test, [γ-33P]-ATP filter membrane; type: biochemical; details: 40 minutes at room temperature, read-out: Kinase-inhibiting activity IC50 Aurora B
# Experimental: (§1) Test samples: compounds 1 to 4 in the present invention (the sequence numbers and structures thereof are shown in Table 1), dilution concentration: 0.03 μM-3 μM, a total of 10 concentration gradients.
# (§2) Test method: enzymatic activity tests of Aurora kinase (including Aurora A and Aurora B) and VEGFR2 (KDR) were performed using a multi-function microplate reader.
# (2) Test for Aurora B Kinase Activity:
# Aurora B kinase protein and the compounds were sequentially added to the following reaction system: 8 mM MOPS pH 7.0, 0.2 mM EDTA, 30 μM […], 10 mM magnesium acetate and [γ-^33P]-ATP (radioactive activity was approximately 500 cpm/pmol). Then the above reaction system was added with ATP to start the reaction, and incubated at room temperature for 40 minutes. Then the reaction was terminated by adding a 3% phosphoric acid solution. 10 μL was taken out from the reaction system, and then added dropwise to a P30 filtermat filter membrane, washed three times in 75 mM phosphoric acid solution for 5 minutes, and then washed once with methanol. After the filter was dried, count was performed by a liquid crystal scintillation counter.
# Aurora A [2] = molecular target: T2, Aurora A (Homo sapiens, UniProt O14965); assay: Aurora A kinase activity test, [γ-33P]-ATP filter membrane; type: biochemical; details: 40 minutes at room temperature, read-out: Kinase-inhibiting activity IC50 Aurora A
# T2 sequence (O14965 1-403): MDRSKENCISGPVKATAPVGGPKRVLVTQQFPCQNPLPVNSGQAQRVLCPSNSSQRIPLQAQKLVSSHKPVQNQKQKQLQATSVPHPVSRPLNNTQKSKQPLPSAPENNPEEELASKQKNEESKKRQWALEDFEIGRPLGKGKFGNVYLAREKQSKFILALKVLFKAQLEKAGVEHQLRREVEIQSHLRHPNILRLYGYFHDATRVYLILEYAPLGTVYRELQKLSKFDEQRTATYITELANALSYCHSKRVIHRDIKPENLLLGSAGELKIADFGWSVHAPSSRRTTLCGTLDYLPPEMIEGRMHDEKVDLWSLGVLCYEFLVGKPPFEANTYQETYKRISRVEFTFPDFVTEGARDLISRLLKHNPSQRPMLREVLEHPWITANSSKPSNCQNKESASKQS
# Experimental: as §1, §2
# (1) Test for Aurora a Kinase Activity:
# Aurora A kinase protein and the compounds were sequentially added to the following reaction system: 8 mM MOPS pH 7.0, 0.2 mM EDTA, 200 μM LRRASLG (Kemptide), 10 mM magnesium acetate and [γ-^33P]-ATP (radioactive activity was approximately 500 cpm/pmol). Then the above reaction system was added with ATP to start the reaction, and incubated at room temperature for 40 minutes. Then the reaction was terminated by adding a 3% phosphoric acid solution. 10 μL was taken out from the reaction system, and then added dropwise to a P30 filtermat filter membrane, washed three times in 75 mM phosphoric acid solution for 5 minutes, and then washed once with methanol. After the filter membrane was dried, count was performed by a liquid crystal scintillation counter.
# KDR(VEGFR2) [3] = molecular target: T3, KDR(VEGFR2) (Homo sapiens, UniProt P35968); assay: KDR kinase activity test, [γ-33P]-ATP filter membrane; type: biochemical; details: 40 minutes at room temperature, read-out: Kinase-inhibiting activity IC50 KDR (VEGFR2)
# T3 sequence (P35968 20-1356): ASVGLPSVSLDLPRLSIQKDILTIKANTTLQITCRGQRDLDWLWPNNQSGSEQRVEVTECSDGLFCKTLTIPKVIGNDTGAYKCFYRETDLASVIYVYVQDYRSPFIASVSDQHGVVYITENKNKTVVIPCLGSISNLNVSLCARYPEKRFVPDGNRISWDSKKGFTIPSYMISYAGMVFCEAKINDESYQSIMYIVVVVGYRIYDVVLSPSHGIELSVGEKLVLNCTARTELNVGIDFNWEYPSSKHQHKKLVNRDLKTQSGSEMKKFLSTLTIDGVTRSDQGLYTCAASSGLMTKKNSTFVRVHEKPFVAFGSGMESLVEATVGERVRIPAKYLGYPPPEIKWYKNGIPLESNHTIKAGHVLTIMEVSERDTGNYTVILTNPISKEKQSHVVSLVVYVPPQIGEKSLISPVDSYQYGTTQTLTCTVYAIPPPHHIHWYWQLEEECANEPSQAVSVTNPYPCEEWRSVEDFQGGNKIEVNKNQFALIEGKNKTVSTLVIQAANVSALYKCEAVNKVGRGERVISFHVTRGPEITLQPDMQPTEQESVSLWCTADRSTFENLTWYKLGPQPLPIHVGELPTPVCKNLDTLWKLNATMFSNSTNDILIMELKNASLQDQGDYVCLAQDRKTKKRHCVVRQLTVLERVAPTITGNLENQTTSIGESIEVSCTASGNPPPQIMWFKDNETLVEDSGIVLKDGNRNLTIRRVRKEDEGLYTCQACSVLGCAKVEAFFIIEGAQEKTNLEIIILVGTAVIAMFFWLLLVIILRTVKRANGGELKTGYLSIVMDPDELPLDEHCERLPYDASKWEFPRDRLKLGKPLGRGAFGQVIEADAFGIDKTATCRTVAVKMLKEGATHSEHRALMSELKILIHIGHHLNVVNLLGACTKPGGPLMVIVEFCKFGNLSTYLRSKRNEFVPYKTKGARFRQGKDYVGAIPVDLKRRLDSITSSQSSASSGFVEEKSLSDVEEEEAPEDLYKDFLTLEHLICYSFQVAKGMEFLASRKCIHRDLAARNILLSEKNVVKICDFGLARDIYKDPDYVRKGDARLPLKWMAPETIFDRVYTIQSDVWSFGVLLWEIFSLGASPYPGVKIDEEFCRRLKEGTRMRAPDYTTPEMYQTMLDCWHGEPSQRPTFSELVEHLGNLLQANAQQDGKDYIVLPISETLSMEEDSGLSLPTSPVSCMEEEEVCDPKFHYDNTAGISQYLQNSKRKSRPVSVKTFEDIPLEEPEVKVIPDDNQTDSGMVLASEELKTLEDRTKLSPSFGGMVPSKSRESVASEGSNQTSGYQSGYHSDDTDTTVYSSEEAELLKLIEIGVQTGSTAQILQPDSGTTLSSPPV
# Experimental: as §1, §2
# (3) Test for KDR Kinase Activity:
# KDR kinase protein and the compounds were sequentially added to the following reaction system: 8 mM MOPS pH 7.0, 0.2 mM EDTA, 0.33 mg/mL myelin basic protein, 10 mM magnesium acetate and [γ-^33P]-ATP (radioactive activity was approximately 500 cpm/pmol). Then the above reaction system was added with ATP to start the reaction, and incubated at room temperature for 40 minutes. Then the reaction was terminated by adding a 3% phosphoric acid solution. 10 μL was taken out from the reaction system, and then added dropwise to a P30 filtermat filter membrane, washed three times in a 75 mM phosphoric acid solution for 5 minutes, and then washed once with methanol. After the filter was dried, count was performed by a liquid crystal scintillation counter.
# [4] = system: OVCAR-8 ovarian cancer cells; assay: Cell proliferation, Cell Titer-Glo; type: cell-based; details: Homo sapiens, 72 hours, read-out: Cellular inhibitory activity IC50 OVCAR-8
# Experimental: (§3) Test method: The effect of compounds on cell proliferation of different cell lines was examined by Cell Titer-Glo method.
# (§4) Each cell line was inoculated into a 96-well plate one day in advance, and after overnight incubation, drugs in different concentrations were added to a final concentration of 0-10000 nM, 3-5 folds dilution, for a total of 10 concentration points. After incubation for 72 hours, the mixture was added with Cell titer-Glo reagent equilibrated at room temperature, and shaken to incubation for 10 min, and then allowed to stand at room temperature for 2 min to stabilize the light signal. The multi-function microplate reader was used to read data from each well and analyze it.
# [5] = system: TOV-112D ovarian cancer cells; assay: Cell proliferation, Cell Titer-Glo; type: cell-based; details: Homo sapiens, TOV112D, 72 hours, read-out: Cellular inhibitory activity IC50 TOV-112D
# Experimental: as §3, §4
# KG-1 Leukemic cells = assay: Cell proliferation, Cell Titer-Glo; type: cell-based; details: 72 hours, read-out: Cellular inhibitory activity IC50 KG-1
# Experimental: as §3, §4
# Kasumi-1 Leukemic cells = assay: Cell proliferation, Cell Titer-Glo; type: cell-based; details: Homo sapiens, 72 hours, read-out: Cellular inhibitory activity IC50 Kasumi-1
# Experimental: as §3, §4
# [6] = system: OVCAR-3 ovarian cancer cells; assay: Cell proliferation, Cell Titer-Glo; type: cell-based; details: Homo sapiens, 72 hours, read-out: Cellular inhibitory activity IC50 OVCAR-3
# Experimental: as §3, §4
# [7] = system: Caov-3 ovarian cancer cells; assay: Cell proliferation, Cell Titer-Glo; type: cell-based; details: Homo sapiens, 72 hours, read-out: Cellular inhibitory activity IC50 Caov-3
# Experimental: as §3, §4
# Hep3B liver cancer cells = assay: Cell proliferation, Cell Titer-Glo; type: cell-based; details: Homo sapiens, 72 hours, read-out: Cellular inhibitory activity IC50 Hep3B
# Experimental: as §3, §4
# [8] = system: A2780 ovarian cancer cells; assay: Cell proliferation, Cell Titer-Glo; type: cell-based; details: Homo sapiens, 72 hours, read-out: Cellular inhibitory activity IC50 A2780
# Experimental: as §3, §4
# KDR(VEGFR2) [9] = molecular target: T3, KDR(VEGFR2); assay: KDR enzymatic activity test, FAM-labeled peptide, Caliper; type: biochemical; details: FAM-labeled peptide substrate, read-out: Kinase-inhibiting activity IC50 KDR(VEGFR2)
# Experimental: (§5) Test samples: Compounds in the present invention (the sequence numbers and structures thereof are shown in Table 1), dilution concentration: 0.03 μM-3 μM, a total of 10 concentration gradients.
# as §2
# (§6) a) 96-well plates, 10 dose groups, 3-fold serial dilutions, each well was added with DMSO, maximal concentration of 500 μM (50-fold compound).
# (§7) b) 384-well plates, diluted with 1× kinase buffer (50 mM HEPES, pH 7.5; 0.0015% Brij-35; 2 mM DTT), each well containing 5× compound dissolved in 5 μL of 10% DMSO. Each well of the negative control contains 5 μL of 1× kinase buffer containing 10% DMSO.
# (§8) Aurora A, Aurora B and KDR were dissolved in 1× kinase buffer and prepared as a 2.5× enzyme solution. After the compound in various concentrations was reacted with 2.5× enzyme solution at room temperature for 10 min, the FAM-labeled peptide substrate and ATP were added to initiate reaction. After incubation for 40 minutes, 25 μL of terminal solution (100 mM HEPES, pH 7.5; 0.015% Brij-35; 0.2% Coating Reagent #3; 50 mM EDTA) was added to stop the reaction, and the final data were read by Caliper.
# Aurora B [10] = molecular target: T1, Aurora B; assay: Aurora B enzymatic activity test, FAM-labeled peptide, Caliper; type: biochemical; details: FAM-labeled peptide substrate, read-out: Kinase-inhibiting activity IC50 Aurora B
# Experimental: as §5, §2, §6, §7, §8
# Aurora A [11] = molecular target: T2, Aurora A; assay: Aurora A enzymatic activity test, FAM-labeled peptide, Caliper; type: biochemical; details: FAM-labeled peptide substrate, read-out: Kinase-inhibiting activity IC50 Aurora A
# Experimental: as §5, §2, §6, §7, §8
# [12] = system: BT-549 breast cancer cells; assay: Cell proliferation, Cell Titer-Glo; type: cell-based; details: Homo sapiens, 72 hours, read-out: Cellular inhibitory activity IC50 BT-549
# Experimental: as §3, §4
# [13] = system: HCC1954 breast cancer cells; assay: Cell proliferation, Cell Titer-Glo; type: cell-based; details: Homo sapiens, 72 hours, read-out: Cellular inhibitory activity IC50 HCC1954
# Experimental: as §3, §4
# [14] = system: D4475 breast cancer cells; assay: Cell proliferation, Cell Titer-Glo; type: cell-based; details: 72 hours, read-out: Cellular inhibitory activity IC50 D4475
# Experimental: as §3, §4
# A549 Lung cancer cells = assay: Cell proliferation, Cell Titer-Glo; type: cell-based; details: Homo sapiens, 72 hours, read-out: Cellular inhibitory activity IC50 A549
# Experimental: as §3, §4
# [15] = system: HCC38 breast cancer cells; assay: Cell proliferation, Cell Titer-Glo; type: cell-based; details: Homo sapiens, 72 hours, read-out: Cellular inhibitory activity IC50 HCC38
# Experimental: as §3, §4
# [16] = system: HCC70 breast cancer cells; assay: Cell proliferation, Cell Titer-Glo; type: cell-based; details: Homo sapiens, 72 hours, read-out: Cellular inhibitory activity IC50 HCC70
# Experimental: as §3, §4
# [17] = system: MDA-MB-468 breast cancer cells; assay: Cell proliferation, Cell Titer-Glo; type: cell-based; details: Homo sapiens, 72 hours, read-out: Cellular inhibitory activity IC50 MDA-MB-468
# Experimental: as §3, §4
# T1 sequence (Q96GD4 whole entry): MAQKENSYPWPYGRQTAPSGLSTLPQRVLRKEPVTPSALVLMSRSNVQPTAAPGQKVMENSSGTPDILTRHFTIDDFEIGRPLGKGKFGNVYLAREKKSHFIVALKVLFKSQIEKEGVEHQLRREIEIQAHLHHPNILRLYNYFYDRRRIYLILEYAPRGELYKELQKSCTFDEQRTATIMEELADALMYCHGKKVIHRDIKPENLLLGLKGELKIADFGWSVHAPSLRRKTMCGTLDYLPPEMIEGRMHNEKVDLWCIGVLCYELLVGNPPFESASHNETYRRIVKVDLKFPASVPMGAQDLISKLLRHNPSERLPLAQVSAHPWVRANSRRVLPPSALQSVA
Compound,IC50 [4] [µM],IC50 [5] [µM],IC50 (KG-1 Leukemic cells) [µM],IC50 (Kasumi-1 Leukemic cells) [µM],IC50 [6] [µM],IC50 [7] [µM],IC50 (Hep3B liver cancer cells) [µM],IC50 [8] [µM],IC50 (KDR(VEGFR2) [9]) [µM],IC50 (Aurora B [10]) [µM],IC50 (Aurora A [11]) [µM],IC50 [12] [µM],IC50 [13] [µM],IC50 (A549 Lung cancer cells) [µM],also measured
COc1cc2c(cn1)C(c1ccccc1Cl)=Nc1c(n[nH]c1C)N2 [Compound 3],,,,,,,,,,,,,,,IC50 (Aurora B [1]): 0.008 µM; IC50 (Aurora A [2]): 0.004 µM; IC50 (KDR(VEGFR2) [3]): 0.876 µM
Cc1[nH]nc2c1N=C(c1ccccc1Cl)c1cnc(OC3CCOC3)cc1N2 (stereo not shown) [Compound 4],,,,,,,,,,,,,,,IC50 (Aurora B [1]): 0.003 µM; IC50 (Aurora A [2]): 0.004 µM; IC50 (KDR(VEGFR2) [3]): 1.52 µM
"Cc1[nH]nc2c1N=C(c1ccccc1Cl)c1cnc(N3CCN(C)CC3)cc1N2 [Compound 22, 5-(2-chlorophenyl)-3-methyl-8-(4-methylpiperazin-1-yl)-2,10-dihydropyrazolo[4,3-b]pyrido[4,3-e][1,4]diazepine]",0.433,0.65,0.005,0.019,0.752,0.146,0.067,0.034,0.00091,0.0071,0.0012,,,,
"Cc1[nH]nc2c1N=C(c1ccccc1Cl)c1cnc(N3CCOCC3)cc1N2 [Compound 29, 4-(5-(2-chlorophenyl)-3-methyl-2,10-dihydropyrazolo[4,3-b]pyrido[4,3-e][1,4]diazepin-8-yl)morpholine]",0.305,0.955,0.005,0.048,0.307,0.184,0.05,0.035,0.0012,0.005,0.00049,0.17,0.396,0.322,IC50 [14]: 0.113 µM
CCN1CCN(Cc2cc3c(cn2)C(c2ccccc2Cl)=Nc2c(n[nH]c2C)N3)CC1 [Compound 33],,,,,,,,,0.0016,0.0058,0.0048,0.421,0.538,,IC50 [15]: 0.7 µM; IC50 [16]: 0.866 µM
Cc1[nH]nc2c1N=C(c1ccccc1Cl)c1cnc(N3CCS(=O)(=O)CC3)cc1N2 [Compound 34],,,0.045,0.081,,,,,0.0023,0.0075,0.0013,,,,
Cc1[nH]nc2c1N=C(c1ccccc1Cl)c1cnc(CN3CCOCC3)cc1N2 [Compound 35],0.62,,,0.08,0.266,0.266,,,0.0086,0.015,0.0048,0.509,0.732,0.578,IC50 [17]: 1.03 µM
"CCc1cc2c(cn1)C(c1ccccc1Cl)=Nc1c(n[nH]c1C)N2 [Control drug 1-2, reference compound]",0.613,2.51,0.452,0.126,0.814,0.365,0.244,0.65,0.0032,0.004,0.0016,0.654,0.894,1.38,IC50 [15]: 1.1 µM; IC50 [17]: 1.38 µM; IC50 [14]: 0.443 µM; IC50 [16]: 1.52 µM

# — US11718620B2, “Method for treating a cancer mediated by abnormality of multi-kinases” (TransThera Sciences (Nanjing), Inc., priority 2016, dated 2023)
